From ChEMBL document CHEMBL5385890, “A JAK tyrosine kinase and pseudokinase Co-inhibition strategy combines enhanced potency and on-demand activation” (Eur J Med Chem, 2023) come the findings set out here.

The source made the active and inactive calls. The rule behind the calls is not given here. A value given as a limit tells only on which side of the number the result lay.

By IC50 is commonly meant the midpoint of a concentration-inhibition curve.

In data set [1] the test system is HEL. Description: Cytotoxicity against HEL cells assessed as inhibition of cell growth. Format: functional, cell-based. The settings on record: Homo sapiens.
Data set [2] concerns HEL. Description: Cytotoxicity against HEL cells assessed as inhibition of cell growth incubated under normoxic condition in presence of 3-cyclopropyl-1-(3-{5-[(morpholin-4-yl)methyl]-1H-1,3-benzodiazol-2-yl}-1H-pyrazol-4-yl)urea. The note with it: Homo sapiens. Format: functional, cell-based.
Data set [3] has as its system HEL. Put plainly: Cytotoxicity against HEL cells assessed as inhibition of cell growth irradiated with 450 nm light and incubated in presence of N-tert-butyl-3-[[5-methyl-2-(4-piperazin-1-ylanilino)pyrimidin-4-yl]amino]benzenesulfonamide. Format: functional, cell-based. The settings on record: Homo sapiens, light or radiation study.
In data set [4] the test system is HEL. Description: Antitumor activity against HEL cells xenografted in Balb/c nude mouse assessed as tumor growth inhibition at 25 mg/kg, ip administered once daily for 14 consecutive days in presence of N-tert-butyl-3-[[5-methyl-2-(4-piperazin-1-ylanilino)pyrimidin-4-yl]amino]benzenesulfonamide relative to control. The settings on record: 336 h, time 14 day, read-out: TGI. Type of data set: functional, Homo sapiens.

Data set [5] concerns HEL. Description: Antitumor activity against HEL cells xenografted in Balb/c nude mouse assessed as induction of apoptosis in tumor at 25 mg/kg, ip administered once daily for 14 consecutive days in presence of N-tert-butyl-3-[[5-methyl-2-(4-piperazin-1-ylanilino)pyrimidin-4-yl]amino]benzenesulfonamide by TUNEL assay relative to control. The note with it: Homo sapiens, time 14.0 day. Type of data set: functional, organism-based.

Data set [6] concerns HEL. Description: Cytotoxicity against HEL cells assessed as inhibition of cell growth incubated under dark condition in presence of N-tert-butyl-3-[[5-methyl-2-(4-piperazin-1-ylanilino)pyrimidin-4-yl]amino]benzenesulfonamide. Format: functional, cell-based. The settings on record: Homo sapiens.
In data set [7] the test system is HEL. Description: Antitumor activity against HEL cells xenografted in Balb/c nude mouse assessed as tumor growth inhibition at 25 mg/kg, ip administered once daily for 14 consecutive days relative to control. Format: functional, Homo sapiens. The note with it: 336 h, time 14 day, read-out: TGI.
Data set [8] has as its system HEL. Description: Cytotoxicity against HEL cells assessed as inhibition of cell growth incubated under hypoxic condition in presence of N-tert-butyl-3-[[5-methyl-2-(4-piperazin-1-ylanilino)pyrimidin-4-yl]amino]benzenesulfonamide. Type of data set: functional, cell-based. The note with it: Homo sapiens.
Data set [9] relates to HEL. Put plainly: Cytotoxicity against HEL cells assessed as inhibition of cell growth incubated under normoxic condition in presence of N-tert-butyl-3-[[5-methyl-2-(4-piperazin-1-ylanilino)pyrimidin-4-yl]amino]benzenesulfonamide. The settings on record: Homo sapiens. Format: functional, cell-based.
Data set [10] can be described thus: Cytotoxicity against HUVEC cells assessed as inhibition of cell growth incubated in presence of N-tert-butyl-3-[[5-methyl-2-(4-piperazin-1-ylanilino)pyrimidin-4-yl]amino]benzenesulfonamide. The settings on record: human.
Data set [11] is described as follows: Cytotoxicity against HUVEC cells assessed as inhibition of cell growth. Type of data set: toxicity, cell-based. The note with it: human.
The subject of data set [12] is HEL. Put plainly: Antitumor activity against HEL cells xenografted in Balb/c nude mouse assessed as induction of apoptosis in tumor at 40 to 80 mg/kg, ip administered once daily for 14 consecutive days by TUNEL assay relative to control. Format: functional, organism-based. The note with it: Homo sapiens, dose 40-80 mg/kg, time 14.0 day.
A short description of data set [13]: Stability of compound in mouse plasma measured after 24 hrs. Format: ADME, cell-free. The settings on record: 24 h.
Data set [14] concerns HEL. Description: Inhibition of JAK/STAT phosphorylation in HEL cells assessed as reduction in STAT3 phosphorylation at 3 uM incubated under hypoxic condition by Western blot analysis. The settings on record: Homo sapiens. Format: cell-based. For orientation: A western blot detects proteins with antibodies after separation by electrophoresis.
The test system of data set [15] is HEL. Put plainly: Inhibition of JAK/STAT phosphorylation in HEL cells assessed as reduction in STAT3 phosphorylation at 3 uM incubated under normoxic condition by Western blot analysis. Format: cell-based. The note with it: Homo sapiens.
In data set [16] the test system is Mus musculus. Put plainly: In vivo inhibition of JAK/STAT signalling in Balb/c nude mouse xenografted with HEL cells assessed as reduction in STAT5 phosphorylation in kidney at 40 to 80 mg/kg, ip administered for 14 consecutive days by Western blot analysis. Type of data set: functional, organism-based. The note with it: dose 40-80 mg/kg, time 14.0 day.
The subject of data set [17] is HEL. Put plainly: Inhibition of JAK/STAT phosphorylation in HEL cells assessed as reduction in STAT5 phosphorylation at 3 uM incubated under normoxic condition by Western blot analysis. Type of data set: cell-based. The note with it: Homo sapiens.
Data set [18] concerns Mus musculus. Put plainly: In vivo inhibition of JAK/STAT signalling in Balb/c nude mouse xenografted with HEL cells assessed as reduction in STAT5 phosphorylation in liver at 40 to 80 mg/kg, ip administered for 14 consecutive days by Western blot analysis. Format: functional, organism-based. The note with it: dose 40-80 mg/kg, time 14.0 day.
In data set [19] the test system is HEL. Description: Cytotoxicity against HEL cells assessed as inhibition of cell growth incubated under hypoxic condition. Format: functional, cell-based. The note with it: Homo sapiens.
Data set [20] concerns Mus musculus. Description: In vivo inhibition of JAK/STAT signalling in Balb/c nude mouse xenografted with HEL cells assessed as reduction in STAT3 phosphorylation in liver at 40 to 80 mg/kg, ip administered for 14 consecutive days by Western blot analysis. The note with it: dose 40-80 mg/kg, time 14.0 day. Format: functional, organism-based.
The subject of data set [21] is Mus musculus. Put plainly: In vivo inhibition of JAK/STAT signalling in Balb/c nude mouse xenografted with HEL cells assessed as reduction in STAT3 phosphorylation in kidney at 40 to 80 mg/kg, ip administered for 14 consecutive days by Western blot analysis. Type of data set: functional, organism-based. The note with it: dose 40-80 mg/kg, time 14.0 day.
Data set [22] has as its system Mus musculus. Description: In vivo inhibition of JAK/STAT signalling in Balb/c nude mouse xenografted with HEL cells assessed as reduction in STAT3 phosphorylation in heart at 40 to 80 mg/kg, ip administered for 14 consecutive days by Western blot analysis. Format: functional, organism-based. The settings on record: dose 40-80 mg/kg, time 14.0 day.
Data set [23] relates to Mus musculus. Description: In vivo inhibition of JAK/STAT signalling in Balb/c nude mouse xenografted with HEL cells assessed as reduction in STAT5 phosphorylation in heart at 40 to 80 mg/kg, ip administered for 14 consecutive days by Western blot analysis. Type of data set: functional, organism-based. The settings on record: dose 40-80 mg/kg, time 14.0 day.
For data set [24], the system named is Mus musculus. Description: In vivo inhibition of JAK/STAT signalling in Balb/c nude mouse xenografted with HEL cells assessed as reduction in STAT3 phosphorylation in spleen at 40 to 80 mg/kg, ip administered for 14 consecutive days by Western blot analysis. The note with it: dose 40-80 mg/kg, time 14.0 day. Type of data set: functional, organism-based.
Data set [25] in a line: Prodrug release in PBS buffer in presence of NADH and nitroreductase assessed as N-tert-butyl-3-[[5-methyl-2-(4-piperazin-1-ylanilino)pyrimidin-4-yl]amino]benzenesulfonamide formation at 10 uM and measured after 120 mins under hypoxic condition by LC-MS/MS analysis. Type of data set: ADME. The settings on record: 2 h.
Data set [26] can be described thus: Stability of compound in human plasma measured after 24 hrs. Type of data set: ADME, cell-free. The settings on record: 24 h.
Data set [27] concerns HEL. Description: Antitumor activity against HEL cells xenografted in Balb/c nude mouse assessed as tumor growth inhibition at 40 mg/kg, ip administered once daily for 14 consecutive days relative to control. The settings on record: 336 h, time 14 day, read-out: TGI. Type of data set: functional, Homo sapiens.
A short description of data set [28]: Prodrug release in HEL cells assessed as N-tert-butyl-3-[[5-methyl-2-(4-piperazin-1-ylanilino)pyrimidin-4-yl]amino]benzenesulfonamide formation at 1 uM incubated for 24 hrs under hypoxic condition by LC-MS/MS analysis. Format: ADME, cell-based. The settings on record: human.
Data set [29] deals with HEL. Description: Inhibition of JAK/STAT phosphorylation in HEL cells assessed as reduction in STAT5 phosphorylation at 3 uM incubated under hypoxic condition by Western blot analysis. Format: cell-based. The settings on record: Homo sapiens.
The nature of data set [30]: Toxicity in Balb/c nude mouse xenografted with HEL cells assessed as reduction in body weight at 40 to 80 mg/kg, ip administered for 14 consecutive days. Type of data set: organism-based. The note with it: in vivo, 336 h, dose 40-80 mg/kg, time 14 day.
Data set [31] is described as follows: Stability of compound in PBS measured after 24 hrs. The note with it: buffer, 24 h. Format: physicochemical.
Data set [32] in a line: Prodrug release in PBS buffer in presence of NADH and nitroreductase assessed as 3-cyclopropyl-1-(3-{5-[(morpholin-4-yl)methyl]-1H-1,3-benzodiazol-2-yl}-1H-pyrazol-4-yl)urea formation at 10 uM measured after 120 mins under hypoxic condition by LC-MS/MS analysis. Type of data set: ADME. The note with it: 2 h.
A short description of data set [33]: Prodrug release in HEL cells assessed as 3-cyclopropyl-1-(3-{5-[(morpholin-4-yl)methyl]-1H-1,3-benzodiazol-2-yl}-1H-pyrazol-4-yl)urea formation at 1 uM incubated for 24 hrs under hypoxic condition by LC-MS/MS analysis. Format: ADME, cell-based. The settings on record: human.
Data set [34] deals with Mus musculus. Put plainly: In vivo inhibition of JAK/STAT signalling in Balb/c nude mouse xenografted with HEL cells assessed as reduction in STAT3 phosphorylation in lung at 40 to 80 mg/kg, ip administered for 14 consecutive days by Western blot analysis. Type of data set: functional, organism-based. The note with it: dose 40-80 mg/kg, time 14.0 day.
Data set [35] has as its system HEL. Put plainly: Antitumor activity against HEL cells xenografted in Balb/c nude mouse assessed as tumor growth inhibition at 80 mg/kg, ip administered once daily for 14 consecutive days relative to control. Format: functional, Homo sapiens. The settings on record: 336 h, time 14 day, read-out: TGI.
The test system of data set [36] is Mus musculus. Description: In vivo inhibition of JAK/STAT signalling in Balb/c nude mouse xenografted with HEL cells assessed as reduction in STAT5 phosphorylation in spleen at 40 to 80 mg/kg, ip administered for 14 consecutive days by Western blot analysis. Format: functional, organism-based. The settings on record: dose 40-80 mg/kg, time 14.0 day.
Data set [37] concerns HEL. Description: Cytotoxicity against HEL cells assessed as inhibition of cell growth incubated under normoxic condition. Type of data set: functional, cell-based. The settings on record: Homo sapiens.
Data set [38] has as its system Mus musculus. Description: In vivo inhibition of JAK/STAT signalling in Balb/c nude mouse xenografted with HEL cells assessed as reduction in STAT5 phosphorylation in lung at 40 to 80 mg/kg, ip administered for 14 consecutive days by Western blot analysis. Format: functional, organism-based. The settings on record: dose 40-80 mg/kg, time 14.0 day.

On to `O=C(Nc1c[nH]nc1-c1nc2ccc(CN3CCOCC3)cc2[nH]1)NC1CC1` [AT-9283], for which the IC50 came out at 1.04 µM in [1]; 650 nM in data set [2]; 2180 nM in [3]; 1410 nM in data set [6]; 1340 nM in [8]; 650 nM in data set [9]. The figures for the inhibition in vivo at 25 mg/kg in data set [4] and in data set [7] were 91.2% and 85.9%, respectively. The outcome in data set [5] was Active.
As for `O=C(Nc1c[nH]nc1-c1nc2cc(CN3CCOCC3)ccc2[nH]1)NC1CC1` [AT-9283], the IC50 in data set [10] was 1760 nM; in data set [11] it was 1.77 µM.
With `Cc1cc(COC(=O)N2CCN(c3ccc(Nc4ncc(C)c(Nc5cccc(S(=O)(=O)NC(C)(C)C)c5)n4)cc3)CC2)c(OCc2cnc([N+](=O)[O-])n2C)c(COC(=O)n2cc(NC(=O)NC3CC3)c(-c3nc4cc(CN5CCOCC5)ccc4[nH]3)n2)c1`, the outcome in data set [12] was Active. The Stability result in data set [13], in [26] and in data set [31] was “Stable” in each case. Moreover, the inhibition entry in data set [14] and in data set [29] was “Active” each time. Also, the inhibition entry in data set [15], in data set [16], in [17], in [18], in data set [20] and in data set [21] was “inactive” in each case. Besides, the inhibition entry in [22], in data set [23], in data set [24], in data set [34], in [36] and in data set [38] was “inactive” each time. Moreover, the IC50 in data set [19] was 3.1 µM; in [11], 84.4 µM; in data set [37], over 200 µM. The Drug metabolism is 6.57 µM in data set [25], “Metabolite_Detected” in [28], 6.49 µM in data set [32] and “Metabolite_Detected” in [33]. Further, the inhibition in vivo at 40 mg/kg in data set [27] stood at 59.8%. The Activity result in data set [30] is listed as “Non-Toxic”. Further, in [35], the inhibition in vivo at 80 mg/kg was found to be 88.9%.
On to `N#CC[C@H](C1CCCC1)n1cc(-c2ncnc3[nH]ccc23)cn1` [RUXOLITINIB], for which the IC50 in data set [1] stood at 7.46 µM.
